{
  "source": "patent US12577278B2",
  "about": "“KRAS G12V mutant binds to JAK1, inhibitors, pharmaceutical compositions, and methods related thereto” (Emory University, priority 2019, dated 2026)",
  "key": {"JAK-STAT pathway [1]": {"system": "JAK-STAT pathway", "assay": "Western blot of JAK-STAT pathway signaling in HEK293T cells", "format": "cell-based", "details": "HEK293T with KRAS-G12V, FIG. 3B", "method": "Western Blot was performed to detect the JAK-STAT pathway signaling change in HEK293T cells with overexpressed JAK1 along with KRAS-WT, G12V, or G12V with 8-mer, with or without IFN-γ stimulation (1 ng/ml, 30 minutes). FOC bar graphs show the levels of phosphorylated STAT1 and STAT3 phosphorylation, and the expression of IRF1 and TAP1 after IFN-γ stimulation in comparison to that without stimulation."}, "[2]": {"biological_target": "T1, KRAS-G12V-JAK1 interaction (Homo sapiens, UniProt P01116, G12V)", "assay": "TR-FRET assay of the KRAS-G12V/JAK1 interaction in HEK293T lysate", "format": "binding", "details": "FIG. 2B, 2D", "method": "TR-FRET titration assay was performed with HEK293T lysate that had been co-transfected with His-KRAS-G12V and Flag-JAK1. TR-FRET signals were recorded upon treatment with the synthetic peptide 8-mer (RasKi) or the 9-mer control (0 to 50 μM).\nCell lysate from HEK293T cells co-expressing GST-KRAS-G12V and Venus-Flag-JAK1 was treated with the synthetic peptide 8-mer WT ([…], SEQ ID NO: 1) or an 8-mer with K606E mutation. A panel of mutations in 8-mer (5 μM) were tested including M603A ([…], SEQ ID NO: 2)."}, "[3]": {"system": "KRAS isogenic cell lines SW48, LIM1215, H838", "assay": "NK92 cell-induced death of KRAS-WT and G12V isogenic cells", "format": "cell-based", "details": "FIG. 4C", "excerpt": "Dose-dependent killing curves of RasKi/8-mer peptide are shown for KRAS WT and G12V isogenic SW48, LIM1215, H838 cell lines with or without NK92 cell stimulation from cell viability readouts.\nRasKi dose-dependent cell death curves were established for KRAS isogenic cell lines treated with JAK1 inhibitor or IFNγ-receptor antagonist in response to NK92 cell stimulation. Bar graphs show integrated results from area under curve (AUC) data of each treatment condition."}, "[4]": {"system": "IFN-γ stimulated STAT1 transcription", "assay": "STAT1 transcription dual-luciferase assay in HEK293T cells", "format": "cell-based", "details": "JAK1 and KRAS-G12V co-expressed with RasKi, 1 ng/ml IFN-γ 18 hours, FIG. 3A", "method": "STAT1 transcriptional activity was tested in HEK293T cells with a dual-luciferase assay. Luciferase activity was measured upon co-expression of JAK1 and KRAS WT, G12V, or G12V with 8-mer. Fold of Control (FOC) with IFN-γ stimulation was calculated comparing to samples without IFN-γ stimulation. Cells were treated with 1 ng/ml IFN-γ for 18 hours after 24 hours of transfection. Dual-luciferase assays were performed, and relative luciferase activity was measured normalized to Renilla luciferase control."}, "[5]": {"biological_target": "T1, KRAS-G12V-JAK1 interaction", "assay": "GST-affinity pull-down assay", "format": "binding"}, "JAK-STAT pathway [6]": {"system": "JAK-STAT pathway", "assay": "IFN-γ stimulated signaling under endogenous conditions in SW48 KRAS isogenic cell lines (luciferase, Western blot, RT-qPCR)", "format": "cell-based", "details": "SW48 G12V cells, IFN-γ 1 ng/ml 18 hours, FIG. 3E", "method": "FOC (Fold of control) of STAT1 transcriptional activity was calculated in SW48 (KRAS isogenic colon cancer) WT and G12V cell lines with IFN-γ stimulation comparing to that without IFN-γ stimulation. RasKi was transduced into G12V cells by lentivirus. Cells were treated with IFN-γ (1 ng/ml) for 18 hours after 24 hours of transduction. Dual-luciferase assays were performed, and relative luciferase activity was measured, normalized to Renilla luciferase control.\nWestern Blot was performed to detect changes in the JAK-STAT pathway in SW48 cell lines (KRAS isogenic colon cancer with G12V), with or without IFN-γ (1 ng/ml) for 30 minutes. FOC bar graphs show STAT1/3 phosphorylation, IRF1 and TAP1 expression in three groups after IFN-γ stimulation comparing to basal level.\nExpression of TAP1, IRF1, PD-L1 mRNA was normalized to GAPDH in SW48 cell lines as detected using RT-qPCR (reverse transcription-quantitative polymerase chain reaction). Cells were treated with IFN-γ (1 ng/ml) for 18 hours."}, "[7]": {"system": "KRAS isogenic cell lines SW48, LIM1215, H838", "assay": "IFNγ-induced cell death in KRAS-WT and G12V isogenic cells", "format": "cell-based", "details": "FIG. 4A; for cell killing without IFNγ: no IFNγ", "excerpt": "Bar graphs show the cell death of three pairs of KRAS isogenic cell lines SW48, LIM1215, H838 under different treatment conditions.\nBar graphs show cell death in three KRAS isogenic G12V cell lines in response to IFNγ stimulation and 8-mer peptide, with or without treatment with a JAK1 inhibitor or an IFNγ-receptor antagonist."}, "[8]": {"assay": "cell permeability of the peptide", "format": "cell-based"}, "[9]": {"system": "HLA-A2+ KRAS WT/G12V cancer cells", "assay": "anti-NY-ESO-1 CD8+ T cell-mediated killing, CellTiter Blue viability", "format": "cell-based", "details": "under T-cell stimulation; FIG. 5A-5F", "method": "The lentivirus-transduced HLA-A2+ parental KRAS WT cells, SW48-A2+ and their KRAS G12V knock-in isogenic cells were co-cultured with anti-NY-ESO-1 CD8+ T cells, or treated with RasKi, RasKi-K606E, or in combinations as indicated. The cell viability after treatment was measured using CellTiter Blue™ reagent. The growth inhibition was normalized to the untreated control.\nThe lentivirus-transduced HLA-A2+ patient derived KRAS WT colon cancer cells (SW48-A2+, LIM1215-A2+ and Caco-2-A2+) and KRASG12V colon cancer cells (SW403-A2+, SW480-A2+ and SW620-A2+) were co-cultured with anti-NY-ESO-1 CD8+ T cells, or treated with RasKi, RasKi-K606E, or in combinations as indicated. The cell viability after treatment was measured using CellTiter Blue™ reagent. The growth inhibition was normalized to the untreated control.\nThe G12V isogenic cells (SW48G12V-A2+, LIM1215G12V-A2+ and H838G12V-A2+) and were co-cultured with anti-NY-ESO-1 CD8+ T cells and treated with RasKi, or in addition with JAK inhibitor (JAKi) or IFNγ receptor antagonist (IFNγRa) as indicated. The cell viability after treatment was measured using CellTiter Blue™ reagent. The growth inhibition was normalized to the untreated control. Each dot represents an individual cell line.\nA gene-engineered CD8+ T cell was produced to specifically target an antigen expressed in an HLA-class I-restricted manner. […]"}, "[10]": {"biological_target": "T1, KRAS-G12V-JAK1 interaction", "assay": "GST-affinity pull-down assay under endogenous conditions", "format": "binding", "design": "endogenous in cells", "details": "FIG. 2F"}},
  "note": "Where a SMILES comes first, the peptide text is derived from it.",
  "data": [
    {"smiles": "CSCC[C@H](N)C(=O)N[C@@H](CC(=O)O)C(=O)N[C@@H](Cc1ccc(O)cc1)C(=O)N[C@@H](CCCCN)C(=O)N[C@@H](CC(=O)O)C(=O)N[C@@H](CC(=O)O)C(=O)N[C@@H](CCC(=O)O)C(=O)NCC(=O)O", "note": "[RasKi] (H-MDYKDDEG-OH; N-terminus and C-terminus assumed)", "values": [
      {"measurement": "STAT1/3 phosphorylation", "setting": "JAK-STAT pathway [1]; IFN-γ 1 ng/ml, 30 minutes", "result": "increased"},
      {"measurement": "expression of IRF1 and TAP1 proteins", "setting": "JAK-STAT pathway [1]; IFN-γ stimulation", "result": "increased"},
      {"measurement": "disruption of the JAK1/KRAS-G12V interaction", "setting": "[2]", "result": "effectively disrupt"},
      {"measurement": "killing of cells with WT KRAS together with NK92 cells", "setting": "[3]; KRAS WT cells, NK92 co-culture", "result": "but not cells with WT KRAS"},
      {"measurement": "killing of cancer cells with KRAS-G12V together with NK92 cells", "setting": "[3]; KRAS-G12V cells, NK92 co-culture", "result": "synergized with NK92 cells to induce dose-dependent killing"},
      {"measurement": "viability of cancer cells, peptide per se", "setting": "[3]; WT or G12V cells, without NK92 cells", "result": "had no effect"},
      {"measurement": "STAT1 transcriptional activity upon IFNγ treatment", "setting": "[4]", "result": "completely reversed the KRAS-G12V effect"},
      {"measurement": "competition with JAK1 full length for binding to KRAS-G12V", "setting": "[5]; GST pull-down, FIG. 2C, 2E", "result": "can compete"},
      {"measurement": "binding to KRAS-G12V", "setting": "[5]; JAK1 truncation mapping", "result": "sufficient for KRAS-G12V binding"},
      {"measurement": "expression of mRNAs for IRF1, TAP1, and PD-L1", "setting": "JAK-STAT pathway [6]", "result": "increased"},
      {"measurement": "cell killing without IFNγ", "setting": "[7]", "result": "no difference"},
      {"measurement": "cell killing without IFNγ", "setting": "[7]; listed as 8-mer", "result": "No cell killing effect"},
      {"measurement": "IFNγ-induced killing effect in cells with KRAS-G12V", "setting": "[7]; with IFNγ, compared to KRAS-WT cells", "result": "drastically increased"},
      {"measurement": "cell permeability", "setting": "[8]", "result": "cell permeable"},
      {"measurement": "T-cell killing in G12V cells", "setting": "[9]", "result": "enhanced T-cell killing"},
      {"measurement": "disruption of the KRAS-G12V/JAK1 interaction at endogenous level", "setting": "[10]", "result": "effectively disrupt the interaction"}
    ]}
  ]
}
